Source: PubChem BioAssay (NCI)
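Interpolation was linear, between the two tested concentrations surrounding the appropriate level; five concentrations were tested over 48 hours in 96-well plates. TGI: concentration producing complete growth inhibition.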

How the values were obtained:
Assay in all cases: inhibition of tumour cell growth, NCI panel, 48 h
[1] = test system: 786-0 renal
[2] = test system: A498 renal
[3] = test system: A549 NSCLC
[4] = test system: ACHN renal
[5] = test system: BT-549 breast
[6] = test system: CAKI-1 renal
[7] = test system: CCRF-CEM leukemia
[8] = test system: COLO 205 colon
[9] = test system: DU-145 prostate
[10] = test system: EKVX NSCLC
[11] = test system: HCT-116 colon
[12] = test system: HCT-15 colon
[13] = test system: HL-60(TB) leukemia
[14] = test system: HOP-62 NSCLC
[15] = test system: HS 578T breast
[16] = test system: HT29 colon
[17] = test system: IGROV1 ovarian
[18] = test system: K-562 leukemia
[19] = test system: KM12 colon
[20] = test system: LOX IMVI melanoma
[21] = test system: M14 melanoma
[22] = test system: MCF7 breast
[23] = test system: MDA-MB-231 breast
[24] = test system: MDA-MB-435
[25] = test system: MDA-N
[26] = test system: MOLT-4 leukemia
[27] = test system: NCI-H226 lung
[28] = test system: NCI-H23 lung
[29] = test system: NCI-H460 lung
[30] = test system: NCI-H522 lung
[31] = test system: NCI/ADR-RES ovarian
[32] = test system: OVCAR-3 ovarian
[33] = test system: OVCAR-4 ovarian
[34] = test system: OVCAR-5 ovarian
[35] = test system: OVCAR-8 ovarian
[36] = test system: PC-3 prostate
[37] = test system: RPMI-8226 leukemia
[38] = test system: SF-268 CNS
[39] = test system: SF-295 CNS
[40] = test system: SF-539 CNS
[41] = test system: SK-MEL-2 melanoma
[42] = test system: SK-MEL-28 melanoma
[43] = test system: SK-MEL-5 melanoma
[44] = test system: SK-OV-3 ovarian
[45] = test system: SN12C renal
[46] = test system: SNB-19 CNS
[47] = test system: SNB-75 CNS
[48] = test system: SR leukemia
[49] = test system: SW-620 colon
[50] = test system: T-47D breast
[51] = test system: TK-10 renal
[52] = test system: U251 CNS
[53] = test system: UACC-257 melanoma
[54] = test system: UACC-62 melanoma
[55] = test system: UO-31 renal

Measured: TGI

Cn1c(=O)c2c(ncn2Cc2ccc(O)c([N+](=O)[O-])c2)n(C)c1=O
> 100 µM: [1] | [2] | [3] | [4] | [5] | [6] | [7] | [8] | [9] | [10] | [11] | [12] | [13] | [14] | [15] | [16] | [17] | [18] | [19] | [20] | [21] | [22] | [23] | [24] | [25] | [26] | [27] | [28] | [29] | [30] | [31] | [32] | [33] | [34] | [35] | [36] | [37] | [38] | [39] | [40] | [41] | [42] | [43] | [44] | [45] | [46] | [47] | [48] | [49] | [50] | [51] | [52] | [53] | [54] | [55]

CC(O)(CCCCCl)c1nc2ccccc2s1 (centres undefined)
> 100 µM: [1] | [2] | [3] | [4] | [5] | [6] | [7] | [8] | [9] | [10] | [11] | [12] | [13] | [14] | [15] | [16] | [17] | [18] | [19] | [20] | [21] | [22] | [23] | [24] | [25] | [26] | [27] | [28] | [30] | [31] | [32] | [33] | [34] | [35] | [36] | [37] | [38] | [39] | [40] | [41] | [42] | [43] | [44] | [45] | [46] | [47] | [48] | [49] | [50] | [51] | [52] | [53] | [54] | [55]
